Converted amounts (≈) assume the structure as drawn. Read-outs that look alike come from different tables or passages of the source.
What was measured:
[1] = Solubility in water (phosphate buffer, UV absorbance); conditions: phosphate buffer, pH 6.8, aqueous buffer, thermodynamic from solid
[2] = system: herpes simplex type 1 virus (HSV-1) (KOS); test: Inhibition of HSV-1 cytopathogenicity in Vero cell culture; assay type: cell-based; conditions: Human alphaherpesvirus 1, Vero, read-out: IC50 HSV-1 (KOS)
[3] = system: human cytomegalovirus (AD-169); test: Inhibition of HCMV cytopathogenicity in Vero cell culture; assay type: cell-based; conditions: Human betaherpesvirus 5, AD169; Vero cell culture; 50% inhibition of cytopathogenicity; for 1:1 mixtures IC50 refers to known antiviral drugs; read-out: IC50 HCMV (AD-169)
HeLa cells = conditions: human
[4] = system: Vero cell thymidine kinase; test: Phosphorylation of nucleosides by Vero cell thymidine kinase; assay type: biochemical; conditions: for Km: apparent Km, 37° C., pH 7.5; for rel. Vmax, Vero cell thymidine kinase: relative to thymidine = 1.0 × 10^2
[5] = Lipophilicity, 1-octanol/water partition coefficient; conditions: 1-octanol/water (0.10 M phosphate buffer)
HSV thymidine kinase = HSV thymidine kinase (Human herpesvirus 1, UniProt P0DTH5); test: Phosphorylation of nucleosides by HSV thymidine kinase; assay type: biochemical
[6] = molecular target: T1, calf mucosal adenosine deaminase (ADA, EC 3.5.4.4) (Bos taurus, UniProt P56658); test: Substrate activity and competitive inhibition of adenosine deaminase; assay type: biochemical; conditions: for type of ADA inhibition in words: ara-A used as substrate; for rel. Vmax: compound as ADA substrate, relative to ara A 3 = 1.0; for Ki: inhibition of ADA with ara-A 3 as substrate
T1 sequence (P56658 1-363): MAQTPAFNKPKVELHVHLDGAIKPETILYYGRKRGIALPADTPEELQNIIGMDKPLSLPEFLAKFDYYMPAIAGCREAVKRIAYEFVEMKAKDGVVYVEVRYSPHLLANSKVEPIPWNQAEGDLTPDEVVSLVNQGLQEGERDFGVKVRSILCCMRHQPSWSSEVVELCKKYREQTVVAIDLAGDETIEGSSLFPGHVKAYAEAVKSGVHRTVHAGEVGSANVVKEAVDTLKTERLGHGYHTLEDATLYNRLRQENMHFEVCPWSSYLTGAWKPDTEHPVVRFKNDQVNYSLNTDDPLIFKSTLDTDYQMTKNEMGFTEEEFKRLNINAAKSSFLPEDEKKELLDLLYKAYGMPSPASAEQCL

[7] = system: thymidine kinase-deficient (TK−) varicella-zoster virus (YS/R); test: microbe, parasite or virus in culture; assay type: cell-based; conditions: Human alphaherpesvirus 3, Vero, read-out: IC50 TK−VZV (YS/R)
[8] = system: thymidine kinase-positive (TK+) varicella-zoster virus (YS); test: Inhibition of TK+ VZV cytopathogenicity in Vero cell culture; assay type: cell-based
Vero cells = conditions: African green monkey
HSV-1 (KOS) = test: Anti-HSV-1 activity in vivo, HSV-1-induced mortality in NMRI mice; conditions: 6 days; for mean day of animal death / mean day of symptom initiation: terminated day 21; for responders at 100 mg/kg / responders at 150 mg/kg / responders at 250 mg/kg: Human alphaherpesvirus 1, ip, 504 h; for protection against HSV-induced mortality: 150 mg/kg dose level i.p.
[9] = LD50 and toxicity in mice, intraperitoneal
HIV-2 (LAV-2) = test: Inhibition of HIV-2 cytopathogenicity in MT4 cells; assay type: cell-based, human immunodeficiency virus; conditions: Human immunodeficiency virus 2; MT4 cells, average of duplicates; read-out: IC50 HIV-2 (LAV-2)
HIV-1 (IIIB) = test: microbe, parasite or virus in culture; assay type: cell-based; conditions: Human immunodeficiency virus 1, IIIB; MT4 cells, average of duplicates; read-out: IC50 HIV-1 (IIIB)
CEM cells = test: Toxicity toward CEM cells
MT4 cells = test: Toxicity toward MT4 cells
[10] = system: moloney murine sarcoma virus (MSV); test: Inhibition of MSV cytopathogenicity in CEM cells (cell-protection assay); assay type: cell-based; conditions: Moloney murine sarcoma virus, CCRF-CEM; CEM cells, average of duplicates; read-out: IC50 MSV
[11] = mixture with acyclovir 2 (w/w=1:1)
[12] = 100 mg/kg/day i.p., read-out: percentage of HSV-1-infected mice alive at day 21 postinfection
[13] = 100 mg/kg/day i.p., read-out: percentage of HSV-1-infected mice without symptoms at day 21 postinfection
[14] = 150 mg/kg/day i.p., read-out: percentage of HSV-1-infected mice alive at day 21 postinfection
[15] = 150 mg/kg/day i.p., read-out: percentage of HSV-1-infected mice without symptoms at day 21 postinfection
[16] = 250 mg/kg/day i.p., read-out: percentage of HSV-1-infected mice alive at day 21 postinfection
[17] = 250 mg/kg/day i.p., read-out: percentage of HSV-1-infected mice without symptoms at day 21 postinfection

HSV thymidine kinase, sequence (P0DTH5 whole entry, looked up): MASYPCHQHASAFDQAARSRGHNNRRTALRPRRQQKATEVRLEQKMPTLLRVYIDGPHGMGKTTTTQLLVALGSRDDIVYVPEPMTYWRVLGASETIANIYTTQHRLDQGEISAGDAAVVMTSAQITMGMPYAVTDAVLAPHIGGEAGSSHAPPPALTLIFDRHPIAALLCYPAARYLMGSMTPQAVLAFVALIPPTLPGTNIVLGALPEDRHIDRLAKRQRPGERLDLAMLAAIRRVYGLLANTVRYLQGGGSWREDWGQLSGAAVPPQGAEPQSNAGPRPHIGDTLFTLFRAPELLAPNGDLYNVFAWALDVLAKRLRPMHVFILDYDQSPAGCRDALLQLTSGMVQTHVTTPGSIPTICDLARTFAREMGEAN

Structure (SMILES)	solubility at 20 h [1] [µg/mL]	IC50 [2] [µg/mL]	IC50 [3] [µg/mL]	HeLa cell, concentration causing microscopically visible change or disruption in about 50% of the cell sheet (HeLa cells) [µg/mL]	Km [4] [mM]	rel. Vmax, Vero cell thymidine kinase [4]	logP at […] [5]	rel. Vmax, HSV thymidine kinase (HSV thymidine kinase)	IC50 [7] [µg/mL]	IC50 TK+VZV (YS) [8] [µg/mL]	Vero cell, concentration causing microscopically visible change or disruption in about 50% of the cell sheet (Vero cells) [µg/mL]	mean day of animal death (HSV-1 (KOS); 100 mg/kg/day i.p.) [days]	mean day of symptom initiation (HSV-1 (KOS); 100 mg/kg/day i.p.) [days]	mean day of animal death (HSV-1 (KOS); 150 mg/kg/day i.p.) [days]	mean day of symptom initiation (HSV-1 (KOS); 150 mg/kg/day i.p.) [days]	mean day of animal death (HSV-1 (KOS); 250 mg/kg/day i.p.) [days]	mean day of symptom initiation (HSV-1 (KOS); 250 mg/kg/day i.p.) [days]	responders at 100 mg/kg (HSV-1 (KOS); [12]) [%]	responders at 100 mg/kg (HSV-1 (KOS); [13]) [%]	responders at 150 mg/kg (HSV-1 (KOS); [14]) [%]	also measured
Nc1ncnc2c1ncn2COCCO [Compound 1, 9-[(2-Hydroxyethoxy)methyl]adenine, reference compound]	2560 (≈ 12200 µM)	4.5 (≈ 21.5 µM)	4.8 (≈ 22.9 µM)	196	> 30	<3.0	0.98	<3.0	9 (≈ 43 µM)	7.0 (≈ 33.5 µM)	209	–	–	–	–	–	–	–	–	–	effect on the rate of phosphorylation of acyclovir 2 in words (HSV thymidine kinase; [11]): did not induce any increase; ADA substrate / inhibitor property in words [6]: functioned as ADA substrates; type of ADA inhibition in words [6]: competitive inhibition; rel. Vmax [6]: 1.48 × 10^−2; Ki [6]: 141 µM
Nc1nc2ncn(COCCO)c2c(=O)[nH]1 [Compound 9, 7-[(2-Hydroxyethoxy)methyl]guanine]	320 (≈ 1420 µM)	1.1 (≈ 4.88 µM)	16 (≈ 71 µM)	114	0.0183	12.0	-0.6	28.0	38 (≈ 169 µM)	13 (≈ 57.7 µM)	99	14.1 ± 0.8	10.9 ± 0.6	16.0 ± 1.5	13.0 ± 1.1	18.5 ± 1.0	15.1 ± 1.2	66	48	78	responders at 150 mg/kg (HSV-1 (KOS); [15]): 57%; responders at 250 mg/kg (HSV-1 (KOS); [16]): 90%; responders at 250 mg/kg (HSV-1 (KOS); [17]): 67%
Nc1ncnc2ncn(COCCO)c12 [Compound 14, 7-[(2-Hydroxyethoxy)methyl]adenine]	4710 (≈ 22500 µM)	0.58 (≈ 2.77 µM)	1 (≈ 4.78 µM)	472	> 30	<3.0	1.24	<3.0	0.97 (≈ 4.64 µM)	1.1 (≈ 5.26 µM)	496	19.8 ± 1.7	17.5 ± 2.1	>21	19.9 ± 1.3	>21	>21	95	80	100	increase on the rate of phosphorylation of acyclovir 2 by HSV thymidine kinase (HSV thymidine kinase; [11]): 2 fold; ADA substrate / inhibitor property in words [6]: functioned as ADA substrates; type of ADA inhibition in words [6]: competitive inhibition; rel. Vmax [6]: 1.50 × 10^−6; Ki [6]: 8.3 µM; LD50 ([9]; NMRI, mouse, in vivo, ip): 950 mg/kg; level up to which no toxicity was shown ([9]; mice, intraperitoneal): 400 mg/kg; protection against HSV-induced mortality (HSV-1 (KOS)): full protection; responders at 150 mg/kg (HSV-1 (KOS); [15]): 88%; responders at 250 mg/kg (HSV-1 (KOS); [16]): 100%; responders at 250 mg/kg (HSV-1 (KOS); [17]): 100%
Nc1nc2c(ncn2CCOCP(=O)(O)O)c(=O)[nH]1 [PMEG 27, 9-[2-(phosphonomethoxy)ethyl]guanine, reference compound]	360 (≈ 1240 µM)	4.6 (≈ 15.9 µM)	0.35 (≈ 1.21 µM)	9.1	–	–	0.14	–	0.06 (≈ 0.207 µM)	0.040 (≈ 0.138 µM)	7.0	–	–	–	–	–	–	–	–	–	IC50 (HIV-2 (LAV-2)): 18 µg/mL (≈ 62.2 µM); IC50 (HIV-1 (IIIB)): 16 µg/mL (≈ 55.3 µM); CEM cell, concentration reducing the number of viable uninfected cells by 50% (CEM cells): 12 µg/mL; MT4 cell, concentration reducing the number of viable uninfected cells by 50% (MT4 cells): 16 µg/mL; IC50 [10]: 0.19 µg/mL (≈ 0.657 µM)
Nc1nc2c(ncn2COCCO)c(=O)[nH]1 [acyclovir 2, 9-[(2-hydroxyethoxy)methyl]guanine, reference compound]	400 (≈ 1780 µM)	0.46 (≈ 2.04 µM)	32 (≈ 142 µM)	259	22	<3.0	-0.48	39.2	–	–	269	18.9 ± 2.1	15.6 ± 1.6	>21	19.1 ± 1.3	>21	>21	80	65	100	protection against HSV-induced mortality (HSV-1 (KOS)): full protection; responders at 150 mg/kg (HSV-1 (KOS); [15]): 86%; responders at 250 mg/kg (HSV-1 (KOS); [16]): 100%; responders at 250 mg/kg (HSV-1 (KOS); [17]): 100%
Cc1cn([C@H]2C[C@H](O)[C@@H](CO)O2)c(=O)[nH]c1=O [thymidine]	–	–	–	–	0.001	1.0 × 10^2	–	–	–	–	–	–	–	–	–	–	–	–	–	–	–
